Laboratory results reported in patent publication US20240174622A1, “COMPOUND AND RADIOACTIVE LABELING COMPOUND” (NIHON MEDI-PHYSICS CO., LTD., priority 2021, published 2024).
Values joined by “and” are separate entries in the source; they are usually repeats but may differ in a detail not shown here. Equal values may be shown once.

Assays:
[1] = tested on: LNCaP tumor-transplanted mouse; assay: Internal radioactivity distribution using LNCaP tumor-transplanted mouse; assay type: in vivo
In short: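 Biodistribution is given as percent injected dose per gram of tissue, measured in blood and organs harvested at time points from 1 h to 192 h. Radiotracers were given by tail-vein injection in saline at 185–259 kBq, n=2–3. Hosts were male CB17 SCID mice carrying LNCaP or PC-3 tumours implanted s.c. in Matrigel 40–60 days earlier.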

[2] = tested on: PC-3 tumor-transplanted mouse; assay: Internal radioactivity distribution using PC-3 tumor-transplanted mouse; assay type: in vivo
Protocol: (§1) The animal test was performed in compliance with the guidelines of Kyoto University Animal Experiment Committee. Male CB17/IcrJcl-Prkdc^scid mice were purchased from CLEA Japan, Inc. The animals were kept under 12 h/12 h, day/night cycle conditions and fed ad libitum with food and water. LNCaP cells (1.0×10^7 cells/mouse) or PC-3 cells (1.0×10^7 cells/mouse) were suspended in a mixture of PBS and Matrigel manufactured by Corning Life Sciences (1:1, 150 μL) and the suspension was subcutaneously transplanted to the right shoulder of mice under isoflurane anesthesia. Thereafter, the mice were kept for 40 to 60 days.
LNCaP or PC-3 tumor-implanted mice were administered saline solutions (185 kBq, 100 μL) of [^111In]In-PSMA-DA1 or [^111In]In-PSMA-DB from the tail vein (n=3 each). Mice were euthanized 1, 4, 24, 48, 96, and 192 hours after administration. Thereafter, blood and each organ were recovered, and the mass and radioactivity of the organs were measured.
The percentage (% ID) of the radioactivity amount to the administered radioactivity amount (injected dose) is shown as the value (% ID/g) divided by the blood mass or the organ mass (g).
as §1, with “LNCaP cells (4.3×10^6 cells/mouse) or” for “LNCaP cells (1.0×10^7 cells/mouse) or”, “PC-3 cells (3.3×10^6 cells/mouse) were” for “PC-3 cells (1.0×10^7 cells/mouse) were”, “shoulder of CB17/IcrJcl-Prkdc^scid mice under” for “shoulder of mice under”
Mice were euthanized 1, 4, 24, 48, 96, and 192 hours after administration. Thereafter, blood and each organ were recovered, and the mass and radioactivity of the organs were measured.
The results are shown in Table 13 (Mean value±standard deviation, n=3).

[3] = 24 h after administration, PC-3 tumor-transplanted mice

Which Blood ([1]; 1 h after administration) does the source give for `O=C(O)CC[C@H](NC(=O)N[C@@H](CCCCNC(=O)[C@H](Cc1ccc2ccccc2c1)NC(=O)[C@H]1CC[C@H](CNC(=O)CCC(C(=O)O)N2CCN(CC(=O)O)CCN(C(CCC(=O)N[C@@H](CCCCNC(=O)CCCc3ccc(I)cc3)C(=O)O)C(=O)O)CCN(CC(=O)O)CC2)CC1)C(=O)O)C(=O)O` (some centres unmarked) [[^111In]In-PSMA-NAT-DA1, metal not drawn] here?
Its Blood is 39.8 ± 2.91 % ID/g.

What about the Brain ([1]; 1 h after administration) of the same compound?
The Brain was 0.63 ± 0.03 % ID/g.

And the Heart ([1]; 1 h after administration)?
The Heart was 10.8 ± 1.31 % ID/g.

And the Intestine ([1]; 1 h after administration)?
The Intestine was 3.40 ± 0.24 % ID/g.

And the Kidney ([1]; 1 h after administration)?
The Kidney was 41.5 ± 4.27 % ID/g.

What about the “LNCaP Tumor” value ([1]; 1 h after administration) of the same compound?
Its value is 23.0 ± 2.20 % ID/g.

What about the Liver ([1]; 1 h after administration) of the same compound?
The Liver was 8.24 ± 2.38 % ID/g.

What about the Lung ([1]; 1 h after administration) of the same compound?
The Lung was 28.1 ± 8.65 % ID/g.

What about the Muscle ([1]; 1 h after administration) of the same compound?
The Muscle was 2.82 ± 0.55 % ID/g.

What about the Pancreas ([1]; 1 h after administration) of the same compound?
Its Pancreas is 7.32 ± 1.27 % ID/g.

And the Spleen ([1]; 1 h after administration)?
Its Spleen is 31.2 ± 2.84 % ID/g.

What about the “Stomach (% ID)” value ([1]; 1 h after administration) of the same compound?
Its value is 0.94 ± 0.35 % ID.

What about the Blood ([1]; 4 h after administration) of the same compound?
Its Blood is 38.8 ± 8.25 % ID/g.

And the Brain ([1]; 4 h after administration)?
Its Brain is 0.83 ± 0.20 % ID/g.

And the Heart ([1]; 4 h after administration)?
Its Heart is 12.2 ± 2.44 % ID/g.

And the Intestine ([1]; 4 h after administration)?
The Intestine was 3.47 ± 0.42 % ID/g.

What about the Kidney ([1]; 4 h after administration) of the same compound?
Its Kidney is 66.2 ± 13.0 % ID/g.

What about the “LNCaP Tumor” value ([1]; 4 h after administration) of the same compound?
The value was 43.6 ± 8.49 % ID/g.

And the Liver ([1]; 4 h after administration)?
Its Liver is 8.38 ± 2.27 % ID/g.

What about the Lung ([1]; 4 h after administration) of the same compound?
Its Lung is 26.5 ± 5.70 % ID/g.

What about the Muscle ([1]; 4 h after administration) of the same compound?
Its Muscle is 3.69 ± 0.83 % ID/g.

And the Pancreas ([1]; 4 h after administration)?
The Pancreas was 5.85 ± 1.34 % ID/g.

And the Spleen ([1]; 4 h after administration)?
Its Spleen is 23.0 ± 3.16 % ID/g.

What about the “Stomach (% ID)” value ([1]; 4 h after administration) of the same compound?
The value was 1.32 ± 0.19 % ID.

What about the Blood ([1]; 24 h after administration) of the same compound?
The Blood was 10.9 ± 5.55 % ID/g.

What about the Brain ([1]; 24 h after administration) of the same compound?
Its Brain is 0.27 ± 0.13 % ID/g.

And the Heart ([1]; 24 h after administration)?
Its Heart is 3.14 ± 1.52 % ID/g.

What about the Intestine ([1]; 24 h after administration) of the same compound?
Its Intestine is 1.26 ± 0.70 % ID/g.

And the Kidney ([1]; 24 h after administration)?
The Kidney was 37.1 ± 19.3 % ID/g.

And the “LNCaP Tumor” value ([1]; 24 h after administration)?
Its value is 51.9 ± 39.3 % ID/g.

What about the Liver ([1]; 24 h after administration) of the same compound?
The Liver was 2.73 ± 1.08 % ID/g.

And the Lung ([1]; 24 h after administration)?
The Lung was 8.76 ± 4.02 % ID/g.

What about the Muscle ([1]; 24 h after administration) of the same compound?
Its Muscle is 1.23 ± 0.36 % ID/g.

And the Spleen ([1]; 24 h after administration)?
Its Spleen is 13.5 ± 8.18 % ID/g.

And the “Stomach (% ID)” value ([1]; 24 h after administration)?
The value was 0.28 ± 0.16 % ID.

And the Blood ([1]; 48 h after administration)?
Its Blood is 12.3 % ID/g and 12.3 ± 1.56 % ID/g.

And the Brain ([1]; 48 h after administration)?
Its Brain is 0.45 ± 0.03 % ID/g.

What about the Heart ([1]; 48 h after administration) of the same compound?
The Heart was 4.68 ± 0.92 % ID/g.

And the Intestine ([1]; 48 h after administration)?
The Intestine was 1.39 ± 0.06 % ID/g.

And the Kidney ([1]; 48 h after administration)?
The Kidney was 79.0 ± 6.78 % ID/g.

And the “LNCaP Tumor” value ([1]; 48 h after administration)?
Its value is 131.6 ± 22.0 % ID/g.

What about the Liver ([1]; 48 h after administration) of the same compound?
Its Liver is 4.49 ± 0.71 % ID/g.

What about the Lung ([1]; 48 h after administration) of the same compound?
The Lung was 11.1 ± 2.24 % ID/g.

What about the Muscle ([1]; 48 h after administration) of the same compound?
The Muscle was 1.48 ± 0.31 % ID/g.

What about the Pancreas ([1]; 48 h after administration) of the same compound?
Its Pancreas is 2.26 ± 0.15 % ID/g.

What about the Spleen ([1]; 48 h after administration) of the same compound?
Its Spleen is 17.8 ± 1.05 % ID/g.

And the “Stomach (% ID)” value ([1]; 48 h after administration)?
The value was 0.44 ± 0.09 % ID.

What about the Blood ([1]; 96 h after administration) of the same compound?
The Blood was 4.07 ± 1.37 % ID/g.

And the Brain ([1]; 96 h after administration)?
The Brain was 0.18 ± 0.04 % ID/g.

And the Heart ([1]; 96 h after administration)?
Its Heart is 2.10 ± 0.83 % ID/g.

And the Intestine ([1]; 96 h after administration)?
The Intestine was 0.86 ± 0.54 % ID/g.

And the Kidney ([1]; 96 h after administration)?
The Kidney was 22.0 ± 14.9 % ID/g.

And the “LNCaP Tumor” value ([1]; 96 h after administration)?
Its value is 56.2 ± 35.6 % ID/g.

What about the Liver ([1]; 96 h after administration) of the same compound?
The Liver was 2.31 ± 0.89 % ID/g.

What about the Lung ([1]; 96 h after administration) of the same compound?
Its Lung is 4.55 ± 2.33 % ID/g.

What about the Muscle ([1]; 96 h after administration) of the same compound?
The Muscle was 0.59 ± 0.09 % ID/g.

And the Pancreas ([1]; 96 h after administration)?
The Pancreas was 2.60 ± 3.18 % ID/g.

And the Spleen ([1]; 96 h after administration)?
The Spleen was 6.33 ± 5.25 % ID/g.

And the “Stomach (% ID)” value ([1]; 96 h after administration)?
Its value is 0.19 ± 0.10 % ID.

What about the Blood ([1]; 192 h after administration) of the same compound?
The Blood was 2.47 ± 0.52 % ID/g.

What about the Heart ([1]; 192 h after administration) of the same compound?
Its Heart is 1.19 ± 0.24 % ID/g.

And the Intestine ([1]; 192 h after administration)?
The Intestine was 0.55 ± 0.15 % ID/g.

And the Kidney ([1]; 192 h after administration)?
Its Kidney is 11.9 ± 2.08 % ID/g.

And the “LNCaP Tumor” value ([1]; 192 h after administration)?
Its value is 35.0 ± 27.3 % ID/g.

And the Liver ([1]; 192 h after administration)?
Its Liver is 2.25 ± 0.45 % ID/g.

And the Lung ([1]; 192 h after administration)?
The Lung was 2.81 ± 0.36 % ID/g.

What about the Muscle ([1]; 192 h after administration) of the same compound?
Its Muscle is 0.33 ± 0.05 % ID/g.

And the Pancreas ([1]; 192 h after administration)?
The Pancreas was 0.94 ± 0.32 % ID/g.

What about the Spleen ([1]; 192 h after administration) of the same compound?
The Spleen was 3.77 ± 0.54 % ID/g.

And the “Stomach (% ID)” value ([1]; 192 h after administration)?
The value was 0.12 ± 0.01 % ID.

What about the Blood [2, 3] of the same compound?
The Blood was 5.73 ± 1.10 % ID/g.

And the Brain [2, 3]?
Its Brain is 0.22 ± 0.03 % ID/g.

And the Heart [2, 3]?
Its Heart is 2.67 ± 0.58 % ID/g.

What about the Intestine [2, 3] of the same compound?
Its Intestine is 0.68 ± 0.07 % ID/g.

And the Kidney [2, 3]?
Its Kidney is 27.9 ± 6.05 % ID/g.

And the Liver [2, 3]?
The Liver was 1.74 ± 0.37 % ID/g.

What about the Lung [2, 3] of the same compound?
The Lung was 7.41 ± 1.13 % ID/g.

What about the Muscle [2, 3] of the same compound?
The Muscle was 0.83 ± 0.26 % ID/g.

What about the “PC-3 Tumor” value [2, 3] of the same compound?
The value was 3.21 ± 1.00 % ID/g.

And the Pancreas [2, 3]?
Its Pancreas is 1.25 ± 0.04 % ID/g.

What about the Spleen [2, 3] of the same compound?
The Spleen was 6.94 ± 4.55 % ID/g.

And the “Stomach (% ID)” value [2, 3]?
The value was 0.15 ± 0.03 % ID.

What about the “accumulation at the PC-3 tumor compared with the LNCaP tumor at the same time point (in words)” value ([2]; mouse, in vivo) of the same compound?
The value was “significantly lower”.
